PMC12396409, “Screening and hit evaluation of a microbial metabolite library against the pathogenic Plasmodium falciparum and Toxoplasma gondii parasites” (International Journal for Parasitology: Drugs and Drug …, 2025)
Like-named read-outs stand apart in the source and are kept apart here.

Legend:
[1] = tested on: P. falciparum 3D7 parasites; assay: P. falciparum growth inhibition assay, 1-cycle (72 h treatment), SYBR DNA staining (library screen at 2 μg/mL and dose-response); assay type: cell-based, Plasmodium falciparum; conditions: for activity at 2 µg/mL: Plasmodium falciparum, 3D7
[2] = tested on: P. falciparum 3D7 parasites; assay: P. falciparum growth inhibition assay, 2-cycle (120 h treatment), delayed-death screen and dose-response; assay type: cell-based, Plasmodium falciparum; conditions: for activity at 2 µg/mL: Plasmodium falciparum, 3D7
[3] = tested on: T. gondii RH strain (RH-Tub-eYFP) tachyzoites; assay: microbe, parasite or virus in culture; assay type: cell-based, Toxoplasma gondii; conditions: for percent parasite growth at 2 µg/mL: Toxoplasma gondii
[4] = library screen at 2 μg/mL, 72 h, % growth, replicate 1
[5] = library screen at 2 μg/mL, 72 h, % growth, replicate 2
[6] = library screen at 2 μg/mL, 120 h, % growth, replicate 1
[7] = library screen at 2 μg/mL, 120 h, % growth, replicate 2
[8] = P. falciparum, 72 h, screen at 2 μg/mL, replicate 1
[9] = P. falciparum, 72 h, screen at 2 μg/mL, replicate 2
[10] = P. falciparum, 120 h, screen at 2 μg/mL, replicate 1
[11] = P. falciparum, 120 h, screen at 2 μg/mL, replicate 2
[12] = T. gondii, 72 h, screen at 2 μg/mL, replicate 1
[13] = T. gondii, 72 h, screen at 2 μg/mL, replicate 2
[14] = P. falciparum, 72 h, parasite screen 2 μg/mL, % growth, replicate 1
[15] = P. falciparum, 72 h, parasite screen 2 μg/mL, % growth, replicate 2
[16] = P. falciparum, 120 h, parasite screen 2 μg/mL, % growth, replicate 1
[17] = P. falciparum, 120 h, parasite screen 2 μg/mL, % growth, replicate 2
[18] = T. gondii, 72 h, parasite screen 2 μg/mL, % growth, replicate 1
[19] = T. gondii, 72 h, parasite screen 2 μg/mL, % growth, replicate 2

## O=C(/C=C/C=C/C=C/C1CCCCC1)NC1=C[C@@](O)(/C=C/C=C/C=C/C(=O)NC2=C(O)CCC2=O)[C@@H]2O[C@@H]2C1=O [Asukamycin]
[1]; [4]
  Pf_72h_%Growth_Rep1: 79.58%
[1]; [5]
  Pf_72h_%Growth_Rep2: 78.85%
[2]; [6]
  Pf_120h_%Growth_Rep1: 67.03%
[2]; [7]
  Pf_120h_%Growth_Rep2: 82.56%
[3]; [4]
  Tg_72h_%Growth_Rep1: 161.41%
[3]; [5]
  Tg_72h_%Growth_Rep2: 93.58%

## CC(/C=C/C(=O)NO[C@@H]1O[C@H](CO)[C@@H](O)[C@H](O)[C@H]1O)=C\[C@@H](C)C(=O)c1ccc(N(C)C)cc1 [Trichostatin C]
[1]; [8]
  Pf_72h_%Growth_Rep1: 75.18%
[1]; [9]
  Pf_72h_%Growth_Rep2: 84.35%
[2]; [10]
  Pf_120h_%Growth_Rep1: 157.32%
[2]; [11]
  Pf_120h_%Growth_Rep2: 88.61%
[3]; [12]
  Tg_72h_%Growth_Rep1: 87.04%
[3]; [13]
  Tg_72h_%Growth_Rep2: 108.99%

## CCCCCCCCCCCCCCCc1cc(O)cc(O)c1 [Adipostatin A]
[1]; [4]
  Pf_72h_%Growth_Rep1: 85.82%
[1]; [5]
  Pf_72h_%Growth_Rep2: 88.98%
[2]; [6]
  Pf_120h_%Growth_Rep1: 83.04%
[2]; [7]
  Pf_120h_%Growth_Rep2: 100.82%
[3]; [4]
  Tg_72h_%Growth_Rep1: 103.30%
[3]; [5]
  Tg_72h_%Growth_Rep2: 96.65%

## Cn1c2ccccc2c(=O)c2c(O)cc3c(c21)C=CC(C)(C)O3 [BIA-N1949]
[1]; P. falciparum 3D7, 72 h, parasite screen at 2 μg/mL, % growth, replicate 1
  Pf_72h_%Growth_Rep1: 90.51%
[1]; P. falciparum 3D7, 72 h, parasite screen at 2 μg/mL, % growth, replicate 2
  Pf_72h_%Growth_Rep2: 117.30%
[2]; P. falciparum 3D7, 120 h, parasite screen at 2 μg/mL, % growth, replicate 1
  Pf_120h_%Growth_Rep1: 85.11%
[2]; P. falciparum 3D7, 120 h, parasite screen at 2 μg/mL, % growth, replicate 2
  Pf_120h_%Growth_Rep2: 95.19%
[3]; T. gondii, 72 h, parasite screen at 2 μg/mL, % growth, replicate 1
  Tg_72h_%Growth_Rep1: 111.30%
[3]; T. gondii, 72 h, parasite screen at 2 μg/mL, % growth, replicate 2
  Tg_72h_%Growth_Rep2: 95.22%

## Cc1c2c(c(O)c3c(O)cccc13)C(=O)[C@]1(O)C(O)=C(C(N)=O)C(=O)[C@H](N(C)C)[C@@H]1C2.Cl [Epianhydrotetracycline hydrochloride]
[1]; [4]
  Pf_72h_%Growth_Rep1: 83.48%
[1]; [5]
  Pf_72h_%Growth_Rep2: 108.73%
[2]; [6]
  Pf_120h_%Growth_Rep1: 77.42%
[2]; [7]
  Pf_120h_%Growth_Rep2: 113.33%
[3]; [4]
  Tg_72h_%Growth_Rep1: 166.02%
[3]; [5]
  Tg_72h_%Growth_Rep2: 109.09%

## COc1cc2c(c3oc(=O)c4c(c13)CCC4=O)[C@@H]1CCO[C@@H]1O2 [Aflatoxin B2]
[1]
  Pf_72h_%Growth_Rep1: 82.21%
  Pf_72h_%Growth_Rep2: 80.10%
[2]
  Pf_120h_%Growth_Rep1: 93.01%
  Pf_120h_%Growth_Rep2: 84.17%
[3]
  Tg_72h_%Growth_Rep1: 112.94%
  Tg_72h_%Growth_Rep2: 92.34%

## CCCCCCCCCC(=O)N[C@H]1CCOC1=O [Decanoyl-L-homoserine lactone]
[1]; [8]
  Pf_72h_%Growth_Rep1: 85.38%
[1]; [9]
  Pf_72h_%Growth_Rep2: 85.76%
[2]; [10]
  Pf_120h_%Growth_Rep1: 108.94%
[2]; [11]
  Pf_120h_%Growth_Rep2: 93.89%
[3]; [12]
  Tg_72h_%Growth_Rep1: 132.23%
[3]; [13]
  Tg_72h_%Growth_Rep2: 94.38%

## CO[C@H]1/C=C\C=C(/C)C(=O)Nc2cc(O)cc(c2O)[C@H](OC)[C@@H](C)C[C@H](OC)[C@H](O)[C@@H](C)/C=C(\C)[C@@H]1OC(N)=O [TAN 420C]
[1]; [14]
  Pf_72h_%Growth_Rep1: 3.02%
[1]; [15]
  Pf_72h_%Growth_Rep2: -2.54%
[2]; [16]
  Pf_120h_%Growth_Rep1: 31.69%
[2]; [17]
  Pf_120h_%Growth_Rep2: 5.24%
[3]; [18]
  Tg_72h_%Growth_Rep1: 82.44%
[3]; [19]
  Tg_72h_%Growth_Rep2: 97.92%

## CCCCCCCCCCC[C@@H](C[C@@H]1OC(=O)[C@H]1CCCCCC)OC(=O)[C@H](CC(C)C)NC=O [Tetrahydrolipstatin]
[1]; P. falciparum, 72 h, screen at 2 μg/mL, replicate 1, read-out: Pf_72h_%Growth_Rep1
  activity at 2 µg/mL: 74.2%
[1]; P. falciparum, 72 h, screen at 2 μg/mL, replicate 2, read-out: Pf_72h_%Growth_Rep2
  activity at 2 µg/mL: 88.8%
[2]; P. falciparum, 120 h, screen at 2 μg/mL, replicate 1, read-out: Pf_120h_%Growth_Rep1
  activity at 2 µg/mL: 171%
[2]; P. falciparum, 120 h, screen at 2 μg/mL, replicate 2, read-out: Pf_120h_%Growth_Rep2
  activity at 2 µg/mL: 93.3%
[3]; 72 h, T. gondii, 72 h, screen at 2 μg/mL, replicate 1, read-out: Tg_72h_%Growth_Rep1
  percent parasite growth at 2 µg/mL: 88.5%
[3]; 72 h, T. gondii, 72 h, screen at 2 μg/mL, replicate 2, read-out: Tg_72h_%Growth_Rep2
  percent parasite growth at 2 µg/mL: 98.4%

## CC1=C[C@]2(C)/C=C(C)/C=C/C[C@@H](O)/C=C3C=C/C(=C4\C(=O)O[C@]2(C[C@@H]1C)C4=O)OC/3 [Spirohexenolide A]
[1]; [14]
  Pf_72h_%Growth_Rep1: 8.85%
[1]; [15]
  Pf_72h_%Growth_Rep2: 0.46%
[2]; [16]
  Pf_120h_%Growth_Rep1: 19.42%
[2]; [17]
  Pf_120h_%Growth_Rep2: -9.19%
[3]; [18]
  Tg_72h_%Growth_Rep1: 115.19%
[3]; [19]
  Tg_72h_%Growth_Rep2: 70.63%
